# Results: US11426406B2, “Compositions and methods for treating lysosomal storage disorders” (GEORGETOWN UNIVERSITY, priority 2017, dated 2022)
# Assays:
# Assay type in all cases: in vivo
# [1] = test system: male Sgsh transgenic mice (MPS); assay: Post-treatment rotarod test in MPS mice (Sanfilippo A model); details: daily I.P. 21 days, nilotinib 10 mg/kg, bosutinib 5 mg/kg, vs DMSO and non-TG controls, FIG. 3
# Protocol: (§1) Twelve 8-9 month old, male Sgsh transgenic mice (MPS) were used for all experiments and were compared to fourteen non-transgenic age-matched, littermates (non-TG). […] Treatment lasted for 21 days. At the end of the treatment period the mice underwent behavioral testing again and Western blot analysis was performed.
# Rotarod: Mice were placed on the rotarod apparatus which sped up to 50 rpm, over the course of 5 minutes for 3-5 trials, with a minimum of 30 minutes rest between trials. Data collected were the time the animal remained ambulatory on the rotating rod, in seconds, labelled “latency to fall.” Data is also presented as “percentage difference” where all groups are normalized to the non-transgenic, untreated group, assuming non-transgenic, untreated animals are preforming at 100%.
# (§2) Post-treatment rotarod MPS versus non-TG littermate mice: After the behavioral tests were conducted the symptomatic MPS mice were divided into three groups (n=4). […] There were three control groups made of age matched non-TG littermate controls (n=4, 5) which were treated in the same way. Behavioral tests were repeated and data collected is referred to as “post-treatment.” Since there was no significant difference between the control non-TG treatment groups, they were combined into one non-TG control group.
# [2] = test system: male Sgsh transgenic mice (MPS); assay: Open-field locomotion test in MPS mice (Sanfilippo A model); details: daily I.P. 21 days, nilotinib 10 mg/kg, bosutinib 5 mg/kg, FIG. 2C
# Protocol: as §1
# Open-field Locomotion: Mice were placed in the open field arena for 60 minutes. Animals were tracked by photocell beams along the arena floor. Data were collected and analyzed for total locomotion via total cm travelled. Other data collected were the total time spent moving ‘total ambulatory time’ (sec) during the 60 minute trial and the average velocity (cm/sec) during the 60 minute trial.
# as §2
# [3] = test system: male Sgsh transgenic mice (MPS); assay: Open-field anxiety test in MPS mice (Sanfilippo A model); details: daily I.P. 21 days, nilotinib 10 mg/kg, bosutinib 5 mg/kg, 5 minute trial, FIG. 2C
# Protocol: Open-field Anxiety: Mice were placed in the open field arena for 5 minutes. Animals were tracked by photocell beams along the arena floor. Data were collected and analyzed for the number of entries into the center zone of the arena, the total distance (cm) traveled within the center zone, the amount of time (sec) spent in the center zone, the total distance traveled (cm) in the peripheral wall zone of the arena, the amount of time spent (sec) in the wall zone, the total distance traveled (cm) during the 5 minute trial, the total time spent moving ‘total ambulatory time’ (sec) during the 5 minute trial, and the average velocity (cm/sec) during the 5 minute trial.
compound,measurement,setting,value
Cc1cn(-c2cc(NC(=O)c3ccc(C)c(Nc4nccc(-c5cccnc5)n4)c3)cc(C(F)(F)F)c2)cn1 [nilotinib],"rotarod performance (latency to fall), post-treatment",[1],"perform better than the MPS mice treated with DMSO or bosutinib, and look more like the non-TG controls"
same,"overall locomotion activity, open field",[2],increased the overall locomotion (p<0.05) activity
same,"anxiety (entries into center zone), open field",[3],"reduced anxiety (more entries into center zone, p<0.05)"
